Measurements published in patent publication US20250011311A1, “AMIDO HETEROAROMATIC COMPOUNDS” (AstraZeneca AB, priority 2022, published 2025).

Experiments:
[1] = target: over expressed HSD17β13 in HEK293S cells (Homo sapiens (Human), UniProt Q7Z5P4); assay: In Vitro 17bHSD13 Cell Assay; type: cell-based; settings: HEK293S cells over expressing HSD17β13; estradiol to estrone conversion, 18 h, LC-MS/MS; read-out: 17bHSD1713 Cell assay IC50
Experimental: In Vitro 17bHSD13 Cell Assay
Inhibition of 17bHSD13 was measured in a cell-based assay with over expressed HSD17β13 in HEK293S cells, measuring estradiol to estrone conversion by LCMS/MS.
Samples were analyzed using LC-MS/MS.
(§1) SCIEX LC-MS/MS system: Sample was injected with CTC analytical injector, SHIMATZU LC pumps LC20 and analysed on the SCIEX API 5000 LCMSMS system with the following settings. […] The mobile phases consist of A (water with 0.2% formic acid) and B (acetonitrile with 0.2% formic acid). The LC gradient profile is as follows: 50% B during 0 to 0.5 min, a linear increase to 100% B during 0.5 to 1 min, hold at 100% B during 1 to 1.6 min then back to 50% B from 1.6 to 2 min. […] Detection was performed on a API 5000 LC/MS/MS system with a triple quadrupole mass spectrometer, a TURBO V ion source, in multiple reaction monitoring (MRM) mode at positive polarity with APCI probe. […] The dwell times were 100 ms for each transition and a depolarization and collision energy of 100 and 40, respectively. Data from MS signals was using area under curve (AUC). Ratio=Estrone/(Estrone+Estradiol)
(§2) […] […] was used for curve fitting and calculation of IC50 values.
(§3) Compound effect was calculated with the formula below;
(§4) where X represents the effect in the presence of test compound, min is DMSO and max is the maximum inhibition of enzyme using a known inhibitor as control.

[2] = target: recombinant 17bHSD13 (N2-K300) (Homo sapiens (Human), UniProt Q7Z5P4); assay: In Vitro 17bHSD13 Enzyme Assay; type: biochemical; settings: 80 nM 17bHSD13, 0.5 mM NAD, 20 μM Estradiol, 2.5 h; estradiol to estrone by LC-MS/MS
Experimental: In Vitro 17bHSD13 Enzyme Assay
The enzyme reaction was initiated by addition, using CERTUS-FLEX dispenser (GYGER), of 20 μl of substrate solution containing NAD (SIGMA, N1511) and Estradiol (SIGMA, E8875). […] Final assay conditions were 80 nM of 17bHSD13, 0.5 mM of NAD, 20 μM Estradiol and various concentrations of compound in buffer (5 mM EDTA (TEKNOVA E0306), 0.01% DDM (AFFYMETRIX D310) in 50 mM Tris-Cl, pH 7.4).
as §1, with “analyzed” for “analysed”
as §2, §3, §4

[3] = target: over expressed HSD17β9 in HEK293S cells (Homo sapiens (Human), UniProt Q92781); assay: In Vitro 17bHSD9 Cell Assay; type: cell-based; settings: HEK293S cells over expressing HSD17β9; retinol to retinal conversion, 18 h, LC-MS/MS; read-out: 17bHSD9 Cell assay IC50
Experimental: In Vitro 17bHSD9 Cell Assay
Inhibition of 17bHSD9 was measured in a cell-based assay with over expressed HSD17β9 in HEK293S cells, measuring retinol to retinal conversion by LCMS/MS.
Cells were plated in 384 well plates (GREINER CELL culture plate 384w black/clear Poly-D-Lysine) at 10 K c/w in 30 μl of culture media (DMEM with GLUTAMAX plus 10% FBS). […] After 18 h of cell culturing for 20 μl of media was transferred using BRAVO dispensing robot (AGILENT) to a GREINER PP 384 well plate (781280) and 40 μl of 50% acetonitrile was added. Samples were analyzed using LC-MS/MS.
SCIEX LC-MS/MS system: Sample was injected with CTC analytical injector, SHIMATZU LC pumps LC20 and analysed on the SCIEX API 5000 LCMSMS system with the following settings. Samples were chromatographed on a WATERS, symmetry, C8, 3.5 μm, 2.1×50 mm) column at constant flow rate of 0.5 mL/min. The mobile phases consists of A (water with 0.2% formic acid) and B (acetonitrile with 0.2% formic acid). The LC gradient profile is as follows: 50% B during 0 to 0.1 min, a linear increase to 100% B during 0.1 to 0.8 min, hold at 100% B during 0.8 to 1.5 min then back to 50% B from 1.5 to 1.6 min and hold during run time. The run time was 2 min with retention times of approximately 1.54 and 1.62 min for Retinol and Retinal, respectively. Detection was performed on a API 5000 LC/MS/MS system with a triple quadrupole mass spectrometer, a TURBO V ion source, in multiple reaction monitoring (MRM) mode at positive polarity with ESI probe. The MRM pairs were m/z 269.3 to m/z 93.0 and m/z 285.2 to 161.0. for Retinol and Retinal, respectively. The dwell times were 100 ms for each transition and a depolarization and collision energy of 50 and 25, respectively. Data from MS signals was using area under curve (AUC). Ratio=Retinal/(Retinal+Retinol).
as §2, §3, §4

Sequence of over expressed HSD17β9 in HEK293S cells (Q92781 whole entry): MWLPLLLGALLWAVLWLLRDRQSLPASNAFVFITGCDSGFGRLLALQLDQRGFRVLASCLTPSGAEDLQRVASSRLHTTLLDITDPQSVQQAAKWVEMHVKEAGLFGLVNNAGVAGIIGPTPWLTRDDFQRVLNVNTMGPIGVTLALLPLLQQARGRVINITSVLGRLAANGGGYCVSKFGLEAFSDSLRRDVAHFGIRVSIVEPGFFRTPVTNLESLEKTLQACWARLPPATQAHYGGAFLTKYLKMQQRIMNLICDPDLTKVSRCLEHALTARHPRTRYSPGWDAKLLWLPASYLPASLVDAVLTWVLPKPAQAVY
Sequence of recombinant 17bHSD13 (N2-K300) (Q7Z5P4 2-300): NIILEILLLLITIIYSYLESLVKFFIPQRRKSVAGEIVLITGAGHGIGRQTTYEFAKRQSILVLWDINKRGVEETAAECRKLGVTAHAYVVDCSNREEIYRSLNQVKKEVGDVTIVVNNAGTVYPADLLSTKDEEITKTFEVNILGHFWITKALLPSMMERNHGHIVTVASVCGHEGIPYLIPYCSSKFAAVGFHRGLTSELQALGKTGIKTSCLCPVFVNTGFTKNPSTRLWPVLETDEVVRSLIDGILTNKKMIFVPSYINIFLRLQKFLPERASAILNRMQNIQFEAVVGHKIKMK
Sequence of over expressed HSD17β13 in HEK293S cells (Q7Z5P4 20-300): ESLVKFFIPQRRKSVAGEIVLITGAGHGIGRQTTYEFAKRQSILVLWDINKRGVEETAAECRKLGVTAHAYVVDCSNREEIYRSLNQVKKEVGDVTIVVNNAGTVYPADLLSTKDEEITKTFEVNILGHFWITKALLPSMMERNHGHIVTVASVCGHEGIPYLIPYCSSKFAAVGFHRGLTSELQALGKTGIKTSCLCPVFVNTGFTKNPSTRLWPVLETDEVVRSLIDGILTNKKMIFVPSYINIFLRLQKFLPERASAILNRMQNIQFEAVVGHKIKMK

IC50 [1] [µM]	IC50 [2] [µM]	IC50 [3] [µM]	SMILES
0.41	0.095	> 50	O=C(c1noc(-c2cc(F)c(F)c(O)c2F)n1)N1CCN(c2ccccc2)CC1 [Example 81, (4-Phenylpiperazin-1-yl)(5-(2,4,5-trifluoro-3-hydroxyphenyl)-1,2,4-oxadiazol-3-yl)methanone]
1.54	0.041	> 50	CN(C(=O)c1noc(-c2ccc(F)c(O)c2)n1)c1nnnn1-c1ccccc1 [Example 92, 5-(4-Fluoro-3-hydroxyphenyl)-N-methyl-N-(1-phenyl-1H-tetrazol-5-yl)-1,2,4-oxadiazole-3-carboxamide]
18.1	5.34	–	O=C(NCc1ccnn1C1CCCCC1)c1cnc(-c2ccc(F)c(O)c2)o1 [Example 100, N-((1-Cyclohexyl-1H-pyrazol-5-yl)methyl)-2-(4-fluoro-3-hydroxyphenyl)oxazole-5-carboxamide]
5.6	0.268	–	Cc1cccnc1CN(C(=O)c1noc(-c2cc(F)c(F)c(O)c2F)n1)C(C)C [Example 75, N-Isopropyl-N-((3-methylpyridin-2-yl)methyl)-5-(2,4,5-trifluoro-3-hydroxyphenyl)-1,2,4-oxadiazole-3-carboxamide]
21.6	0.088	> 50	Cc1ccc2[nH]c(CN(C)C(=O)c3noc(-c4cc(F)c(F)c(O)c4F)n3)nc2c1 [Example 73, N-Methyl-N-((5-methyl-1H-benzo[d]imidazol-2-yl)methyl)-5-(2,4,5-trifluoro-3-hydroxyphenyl)-1,2,4-oxadiazole-3-carboxamide]
0.73	0.05	> 50	COc1cccc(N2CCN(C(=O)c3noc(-c4cc(F)c(F)c(O)c4F)n3)CC2)c1 [Example 61, (4-(3-Methoxyphenyl)piperazin-1-yl)(5-(2,4,5-trifluoro-3-hydroxyphenyl)-1,2,4-oxadiazol-3-yl)methanone]
4.13	0.368	–	N#Cc1c(C(=O)N2CC(C(F)(F)F)C2)noc1-c1cc(F)c(F)c(O)c1F [Example 28, 5-(2,4,5-Trifluoro-3-hydroxyphenyl)-3-(3-(trifluoromethyl)azetidine-1-carbonyl)isoxazole-4-carbonitrile]
> 50	0.166	–	CN(C(=O)c1nnc(-c2ccc(F)c(O)c2)o1)c1nnnn1-c1ccccc1 [Example 91, 5-(4-Fluoro-3-hydroxyphenyl)-N-methyl-N-(1-phenyl-1H-tetrazol-5-yl)-1,3,4-oxadiazole-2-carboxamide]
3.5	0.198	–	N#Cc1c(C(=O)N2CCC(n3cc(-c4ccc(F)cc4)[nH]c3=O)CC2)noc1-c1cc(F)c(F)c(O)c1F [Example 24, 3-(4-(4-(4-Fluorophenyl)-2-oxo-2,3-dihydro-1H-imidazol-1-yl)piperidine-1-carbonyl)-5-(2,4,5-trifluoro-3-hydroxyphenyl)isoxazole-4-carbonitrile]
1.19	–	–	CN(C(=O)c1noc(-c2cc(F)c(F)c(O)c2F)n1)c1cccc(C#N)c1 [Example 63, N-(3-Cyanophenyl)-N-methyl-5-(2,4,5-trifluoro-3-hydroxyphenyl)-1,2,4-oxadiazole-3-carboxamide]
28.4	0.068	–	Cc1cc2nc(CN(C)C(=O)c3noc(-c4cc(F)c(F)c(O)c4F)n3)[nH]c2cc1C [Example 71, N-((5,6-Dimethyl-1H-benzo[d]imidazol-2-yl)methyl)-N-methyl-5-(2,4,5-trifluoro-3-hydroxyphenyl)-1,2,4-oxadiazole-3-carboxamide]
4.14	0.474	> 50	COc1cccc(N2CCN(C(=O)c3noc(-c4cc(C(F)(F)F)[nH]c(=O)c4)n3)CC2)c1 [Example 10, 4-(3-(4-(3-Methoxyphenyl)piperazine-1-carbonyl)-1,2,4-oxadiazol-5-yl)-6-(trifluoromethyl)pyridin-2(1H)-one]
1.26	3.76	–	CN(C)C(=O)C1CCCN1C(=O)c1ccc(-c2cc(F)c(F)c(O)c2F)s1 (stereo not shown) [Example 105, N,N-Dimethyl-1-(5-(2,4,5-trifluoro-3-hydroxyphenyl)thiophene-2-carbonyl)pyrrolidine-2-carboxamide]
0.42	0.05	> 50	O=C(c1cc(-c2ccc(F)c(O)c2)on1)N1CC[C@H](c2ccccc2)C1 [Example 101, (R)-(5-(4-Fluoro-3-hydroxyphenyl)isoxazol-3-yl)(3-phenylpyrrolidin-1-yl)methanone]
0.7	0.052	> 50	O=C(c1noc(-c2cc(F)c(F)c(O)c2F)n1)N1CCC2(C1)OCc1ccccc12 (stereo not shown) [Example 102, (3H-Spiro[isobenzofuran-1,3′-pyrrolidin]-1′-yl)(5-(2,4,5-trifluoro-3-hydroxyphenyl)-1,2,4-oxadiazol-3-yl)methanone]
0.96	0.112	–	COc1ccc(N2CCN(C(=O)c3noc(-c4cc(F)c(F)c(O)c4F)n3)CC2)cc1 [Example 55, (4-(4-Methoxyphenyl)piperazin-1-yl)(5-(2,4,5-trifluoro-3-hydroxyphenyl)-1,2,4-oxadiazol-3-yl)methanone]
0.2	0.134	–	O=C(c1noc(-c2cc(F)c(F)c(O)c2F)n1)N1Cc2ccc(F)cc2C1 [Example 65, (5-Fluoroisoindolin-2-yl)(5-(2,4,5-trifluoro-3-hydroxyphenyl)-1,2,4-oxadiazol-3-yl)methanone]
